Earlier results on one molecule are cited in US20260027014A1, “DEVICES AND METHODS RELATED TO COLORIMETRIC DETECTION FOR DENTAL USES” (CaviSense Inc., priority 2022, published 2026).

Read-outs that look alike come from different tables or passages of the source.

In the case of `OC[C@H]1O[C@@](CO)(O[C@H]2O[C@H](CO)[C@@H](O)[C@H](O)[C@H]2O)[C@@H](O)[C@@H]1O` [sucrose], the solubility by setting is: (in methanol) 1 g/100 ml; (in water) 210 g/100 mL.
